From ChEMBL document CHEMBL1201862, “PubChem BioAssay data set” (2004)
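Growth conditions: 96-well plates. Treatment: test compound, 48 hours, 5 concentrations. Analysis: linear interpolation between bracketing concentrations; unreached endpoints set to highest concentration. GI50 is the concentration that inhibits growth by half.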 The source made the active and inactive calls. Cut-off read from the data, not from the text of the source: active = GI50 up to about 1.1 µM and inactive = higher.

Legend:
Test in all cases: NCI anticancer screen, dose series, 48 h
[1] = tested on: DLD-1
[2] = tested on: DMS-273
[3] = tested on: HOP-18
[4] = tested on: KM-20L2
[5] = tested on: LXFL 529
[6] = tested on: M19-MEL
[7] = tested on: RXF 631
[8] = tested on: SNB-78
[9] = tested on: XF498

Measured: GI50

O=C1[C@@H]2C(c3ccccc3F)=NO[C@@H]2C(=O)N1c1ccc(Cc2ccc(N3C(=O)[C@H]4C(c5ccccc5F)=NO[C@H]4C3=O)cc2)cc1
inactive: [1] > 100 µM | [2] > 100 µM | [3] > 100 µM | [4] > 100 µM | [5] > 100 µM | [6] > 100 µM | [7] > 100 µM | [8] > 100 µM | [9] > 87.3 µM

CCOC(=O)CCn1ncc(Cl)c(Cl)c1=O
inactive: [1] 5.5 µM | [2] 9.46 µM | [3] 3.99 µM | [4] 14.2 µM | [5] 3.84 µM | [6] 2.58 µM | [7] 2.97 µM | [8] 6.22 µM | [9] 20.5 µM

O=C(O)c1[nH]c(C(=O)O)c(CC(F)(F)C(F)(F)C(F)(F)F)c1CC(F)(F)C(F)(F)C(F)(F)F
inactive: [1] > 100 µM | [2] > 100 µM | [3] > 100 µM | [4] > 100 µM | [5] > 100 µM | [6] > 100 µM | [7] > 100 µM | [8] > 100 µM | [9] > 100 µM

COc1ccc(OC)c(/C=C/[N+](=O)[O-])c1
inactive: [1] 2.88 µM | [2] 2.61 µM | [3] 1.85 µM | [4] 4.69 µM | [5] 1.91 µM | [6] 2.39 µM | [7] 2.83 µM | [8] 6.84 µM | [9] 2.94 µM

COc1nc(/C=N/NC(N)=S)nc(OC)n1
inactive: [1] > 100 µM | [2] 56.9 µM | [3] > 100 µM | [4] 35.4 µM | [5] > 100 µM | [6] 65.3 µM | [7] 44.2 µM | [8] > 100 µM | [9] > 100 µM

COC1/C(=C\C(=O)OC(C)(C)C)c2ccccc2N1C(C)=O (stereo not drawn)
inactive: [1] > 100 µM | [2] > 100 µM | [3] > 100 µM | [4] > 100 µM | [5] > 100 µM | [6] > 100 µM | [7] > 100 µM | [8] > 100 µM | [9] 57.5 µM

COc1cc2cc[n+]3c4cc(OC)c(OC)cc4c(C)cc3c2cc1OC
inactive: [1] > 100 µM | [2] > 100 µM | [3] > 100 µM | [4] > 100 µM | [5] 35.6 µM | [6] > 100 µM | [7] > 100 µM | [8] > 100 µM | [9] > 100 µM
